{"source": "PubChem BioAssay AID292", "about": "(DTP/NCI, 2004)", "system": "B6C3F1 mice, ip Sarcoma M5076, median survival T/C", "assay": "NCI In Vivo Anticancer Drug Screen. Data for tumor model Sarcoma M5076 (intraperitoneal) in B6C3F1 mice", "details": "endpoint: median survival time, schedule: Q04DX004 (ip), higher = longer survival", "method_in_brief": "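The readout is a ratio of survival in drug-treated animals to survival in animals given vehicle alone, taken in mice bearing a transplanted tumour line.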", "key": {"[1]": {"details": "dose: 3.0 mg/kg/injection, vehicle: saline with Tween-80"}, "[2]": {"details": "dose: 6.0 mg/kg/injection, vehicle: saline with Tween-80"}, "[3]": {"details": "dose: 12.0 mg/kg/injection, vehicle: saline with Tween-80"}, "[4]": {"details": "dose: 12.5 mg/kg/injection, vehicle: saline with Tween-80"}, "[5]": {"details": "dose: 50.0 mg/kg/injection, vehicle: saline with Tween-80"}}, "note": "“And” between values parts separate entries of the source, which are not always exact repeats. Equal values may be shown once. Inconclusive results and toxic doses are left out.", "data": [{"smiles": "Nc1nc(=O)nc2[nH]c3c4cccc5cccc(c3nc12)c54", "note": "(tested in a mixture with another compound)", "values": [{"measurement": "T/C", "setting": "dose: 18.75 mg/kg/injection, vehicle: Klucel (hydroxypropylcellulose) (HPC)", "value": "104 % of control"}, {"measurement": "T/C", "setting": "dose: 37.5 mg/kg/injection, vehicle: Klucel (hydroxypropylcellulose) (HPC)", "value": "102 % of control"}, {"measurement": "T/C", "setting": "dose: 75.0 mg/kg/injection, vehicle: Klucel (hydroxypropylcellulose) (HPC)", "value": "104 % of control"}, {"measurement": "T/C", "setting": "dose: 150.0 mg/kg/injection, vehicle: Klucel (hydroxypropylcellulose) (HPC)", "value": "98 % of control"}, {"measurement": "T/C", "setting": "dose: 300.0 mg/kg/injection, vehicle: Klucel (hydroxypropylcellulose) (HPC)", "value": "94 % of control"}]}, {"smiles": "COc1ccc(NC(=O)/N=C2\\CN(C(=O)c3c(F)cccc3F)C(=O)N2c2ccc(OC)cc2)cc1", "values": [{"measurement": "T/C", "setting": "[1]", "value": "95 % of control"}, {"measurement": "T/C", "setting": "[2]", "value": "100 % of control"}, {"measurement": "T/C", "setting": "[3]", "value": "102 % of control"}, {"measurement": "T/C", "setting": "dose: 24.0 mg/kg/injection, vehicle: saline with Tween-80", "value": "95 % of control"}, {"measurement": "T/C", "setting": "dose: 48.0 mg/kg/injection, vehicle: saline with Tween-80", "value": "95 % of control"}]}, {"smiles": "COc1ccc(OC)c(N2C(=O)C(=O)C(C(C)=O)C2=O)c1", "note": "(stereo unspecified)", "values": [{"measurement": "T/C", "setting": "dose: 50.0 mg/kg/injection, vehicle: Klucel (hydroxypropylcellulose) (HPC)", "value": "104 % of control"}, {"measurement": "T/C", "setting": "dose: 100.0 mg/kg/injection, vehicle: Klucel (hydroxypropylcellulose) (HPC)", "value": "100 % of control"}]}, {"smiles": "Cc1c2c(ccc3ccccc32)c[n+]2ccccc12", "values": [{"measurement": "T/C", "setting": "dose: 1.5 mg/kg/injection, vehicle: saline with Tween-80", "value": "97 % of control and 104 % of control and 109 % of control"}, {"measurement": "T/C", "setting": "[1]", "value": "92 % of control and 97 % of control and 104 % of control"}, {"measurement": "T/C", "setting": "[2]", "value": "92 % of control and 107 % of control and 115 % of control"}, {"measurement": "T/C", "setting": "[3]", "value": "92 % of control"}]}, {"smiles": "CCCCCn1c(C)cc(/C=C\\c2ccc3cc(C)ccc3[n+]2C)c1C", "values": [{"measurement": "T/C", "setting": "dose: 1.0 mg/kg/injection, vehicle: saline", "value": "103 % of control"}, {"measurement": "T/C", "setting": "dose: 2.0 mg/kg/injection, vehicle: saline", "value": "111 % of control"}, {"measurement": "T/C", "setting": "dose: 4.0 mg/kg/injection, vehicle: saline", "value": "111 % of control"}, {"measurement": "T/C", "setting": "dose: 8.0 mg/kg/injection, vehicle: saline", "value": "114 % of control"}]}, {"smiles": "[Cl][Pt][Cl].[NH-]C(CO)C(=O)O", "note": "(stereo unspecified)", "values": [{"measurement": "T/C", "setting": "dose: 12.5 mg/kg/injection, vehicle: water", "value": "97 % of control"}, {"measurement": "T/C", "setting": "dose: 25.0 mg/kg/injection, vehicle: water", "value": "111 % of control"}, {"measurement": "T/C", "setting": "dose: 50.0 mg/kg/injection, vehicle: water", "value": "111 % of control"}]}, {"smiles": "COc1c(O)cc2c(c1OC)-c1ccc(SC)c(=O)cc1C(NC(C)=O)CC2", "note": "(stereo unspecified)", "values": [{"measurement": "T/C", "setting": "dose: 5.0 mg/kg/injection, vehicle: Klucel (hydroxypropylcellulose) (HPC)", "value": "154 % of control and 196 % of control"}, {"measurement": "T/C", "setting": "dose: 10.0 mg/kg/injection, vehicle: Klucel (hydroxypropylcellulose) (HPC)", "value": "235 % of control and 237 % of control"}]}, {"smiles": "CC1=C[P+](c2ccccc2)(c2ccccc2)C=C(c2ccccc2)O1", "values": [{"measurement": "T/C", "setting": "dose: 1.25 mg/kg/injection, vehicle: saline + alcohol", "value": "110 % of control"}, {"measurement": "T/C", "setting": "dose: 5.0 mg/kg/injection, vehicle: saline + alcohol", "value": "110 % of control"}, {"measurement": "T/C", "setting": "dose: 10.0 mg/kg/injection, vehicle: saline + alcohol", "value": "117 % of control"}]}, {"smiles": "CCNC(=O)OCc1cnc(C)c(O)c1COC(=O)NCC", "values": [{"measurement": "T/C", "setting": "dose: 50.0 mg/kg/injection, vehicle: saline", "value": "97 % of control"}, {"measurement": "T/C", "setting": "dose: 100.0 mg/kg/injection, vehicle: saline", "value": "107 % of control"}, {"measurement": "T/C", "setting": "dose: 200.0 mg/kg/injection, vehicle: saline", "value": "108 % of control"}, {"measurement": "T/C", "setting": "dose: 400.0 mg/kg/injection, vehicle: saline", "value": "102 % of control"}]}, {"smiles": "C[CH2][Sn]([Cl])([CH2]C)[c]1cc[c]([Sn]([Cl])([CH2]C)[CH2]C)cc1", "values": [{"measurement": "T/C", "setting": "dose: 0.06 mg/kg/injection, vehicle: Klucel (hydroxypropylcellulose) (HPC)", "value": "102 % of control"}, {"measurement": "T/C", "setting": "dose: 0.12 mg/kg/injection, vehicle: Klucel (hydroxypropylcellulose) (HPC)", "value": "89 % of control"}, {"measurement": "T/C", "setting": "dose: 0.25 mg/kg/injection, vehicle: Klucel (hydroxypropylcellulose) (HPC)", "value": "91 % of control"}, {"measurement": "T/C", "setting": "dose: 0.5 mg/kg/injection, vehicle: Klucel (hydroxypropylcellulose) (HPC)", "value": "101 % of control"}, {"measurement": "T/C", "setting": "dose: 90.0 micrograms/kg/injection, vehicle: Klucel (hydroxypropylcellulose) (HPC)", "value": "106 % of control"}, {"measurement": "T/C", "setting": "dose: 150.0 micrograms/kg/injection, vehicle: Klucel (hydroxypropylcellulose) (HPC)", "value": "96 % of control"}, {"measurement": "T/C", "setting": "dose: 250.0 micrograms/kg/injection, vehicle: Klucel (hydroxypropylcellulose) (HPC)", "value": "100 % of control"}, {"measurement": "T/C", "setting": "dose: 416.7 micrograms/kg/injection, vehicle: Klucel (hydroxypropylcellulose) (HPC)", "value": "98 % of control"}, {"measurement": "T/C", "setting": "dose: 694.5 micrograms/kg/injection, vehicle: Klucel (hydroxypropylcellulose) (HPC)", "value": "107 % of control"}]}, {"smiles": "CC[C@@]1(O)C(=O)OCc2c1cc1n(c2=O)Cc2cc3cc(O)ccc3nc2-1", "values": [{"measurement": "T/C", "setting": "dose: 0.86 mg/kg/injection, vehicle: suspension in saline", "value": "104 % of control"}, {"measurement": "T/C", "setting": "dose: 1.44 mg/kg/injection, vehicle: suspension in saline", "value": "109 % of control"}, {"measurement": "T/C", "setting": "dose: 1.88 mg/kg/injection, vehicle: suspension in saline", "value": "106 % of control"}, {"measurement": "T/C", "setting": "dose: 2.4 mg/kg/injection, vehicle: suspension in saline", "value": "115 % of control"}, {"measurement": "T/C", "setting": "dose: 3.75 mg/kg/injection, vehicle: suspension in saline", "value": "162 % of control"}, {"measurement": "T/C", "setting": "dose: 6.67 mg/kg/injection, vehicle: suspension in saline", "value": "116 % of control"}]}, {"smiles": "CS(=O)(=O)OCCCCOS(C)(=O)=O", "values": [{"measurement": "T/C", "setting": "dose: 6.25 mg/kg/injection, vehicle: saline with Tween-80", "value": "100 % of control"}, {"measurement": "T/C", "setting": "[4]", "value": "104 % of control"}]}, {"smiles": "CC(O)C1(O)C(O)CC(OC2c3cc4c(c(O)c3[C@@H]3C[C@@]2(C)OC32C=c3cc[nH]c3=N2)C(=O)c2cccc(O)c2C4=O)OC1C", "note": "(stereo partly specified)", "values": [{"measurement": "T/C", "setting": "[4]", "value": "104 % of control"}, {"measurement": "T/C", "setting": "dose: 25.0 mg/kg/injection, vehicle: saline with Tween-80", "value": "104 % of control"}, {"measurement": "T/C", "setting": "[5]", "value": "92 % of control"}]}, {"smiles": "Nc1nc(N)c2c(ccc3c2ccn3Cc2cccc([N+](=O)[O-])c2)n1", "values": [{"measurement": "T/C", "setting": "dose: 2.38 mg/kg/injection, vehicle: saline with Tween-80", "value": "98 % of control and 109 % of control"}, {"measurement": "T/C", "setting": "dose: 4.69 mg/kg/injection, vehicle: saline with Tween-80", "value": "117 % of control"}, {"measurement": "T/C", "setting": "dose: 4.75 mg/kg/injection, vehicle: saline with Tween-80", "value": "115 % of control"}, {"measurement": "T/C", "setting": "dose: 9.38 mg/kg/injection, vehicle: saline with Tween-80", "value": "121 % of control"}, {"measurement": "T/C", "setting": "dose: 9.5 mg/kg/injection, vehicle: saline with Tween-80", "value": "118 % of control"}, {"measurement": "T/C", "setting": "dose: 38.0 mg/kg/injection, vehicle: saline with Tween-80", "value": "153 % of control and 155 % of control"}]}, {"smiles": "CCC(CC)COC(=O)c1ccccc1C(=O)OCC(CC)CC", "values": [{"measurement": "T/C", "setting": "dose: 75.0 mg/kg/injection, vehicle: saline with Tween-80", "value": "102 % of control"}, {"measurement": "T/C", "setting": "dose: 150.0 mg/kg/injection, vehicle: saline with Tween-80", "value": "102 % of control"}, {"measurement": "T/C", "setting": "dose: 300.0 mg/kg/injection, vehicle: saline with Tween-80", "value": "104 % of control"}, {"measurement": "T/C", "setting": "dose: 600.0 mg/kg/injection, vehicle: saline with Tween-80", "value": "106 % of control"}, {"measurement": "T/C", "setting": "dose: 1200.0 mg/kg/injection, vehicle: saline with Tween-80", "value": "114 % of control"}]}, {"smiles": "Cc1cc(=O)n(Cc2ccco2)c(=S)[nH]1", "values": [{"measurement": "T/C", "setting": "[5]", "value": "105 % of control"}, {"measurement": "T/C", "setting": "dose: 100.0 mg/kg/injection, vehicle: saline with Tween-80", "value": "105 % of control"}, {"measurement": "T/C", "setting": "dose: 200.0 mg/kg/injection, vehicle: saline with Tween-80", "value": "100 % of control"}, {"measurement": "T/C", "setting": "dose: 400.0 mg/kg/injection, vehicle: saline with Tween-80", "value": "89 % of control"}, {"measurement": "T/C", "setting": "dose: 800.0 mg/kg/injection, vehicle: saline with Tween-80", "value": "106 % of control"}]}, {"smiles": "CNNCc1ccc(C(=O)NC(C)C)cc1", "values": [{"measurement": "T/C", "setting": "dose: 22.0 mg/kg/injection, vehicle: saline", "value": "119 % of control"}, {"measurement": "T/C", "setting": "dose: 88.0 mg/kg/injection, vehicle: saline", "value": "152 % of control"}, {"measurement": "T/C", "setting": "dose: 352.0 mg/kg/injection, vehicle: saline", "value": "152 % of control"}]}]}
